From patent US10285865B2, “Drug-releasing device usable in mucosal body cavities” (Princeton Trade & Technololgy, Inc., priority 2014, dated 2019) come the findings set out here.

Converted amounts (≈) assume the structure as drawn.

Holding throughout (assay type): cell-based
The test system of one experiment is Streptococcus pneumonia. Put plainly: Minimum Inhibitory Concentration (MIC) in water. As to conditions: Streptococcus pneumoniae. The source says:
(§1) In an embodiment of the invention, the two forms of Ciprofloxacin can be combined in a single implant so as to achieve a desired the rate of delivery, the solubility limit of the drug in middle ear exudate or release of the drug. […]. The Minimum Inhibitory Concentration is the smallest concentration of a drug in water that will inhibit growth of a particular bacteria in solution.
(§2) The quantity Minimum Inhibitory Concentration (MIC) is the smallest concentration of a drug in water that will inhibit growth of a particular organism. It may be desirable for the administered concentration of a drug to be some multiple of this quantity. MIC for Ciprofloxacin is given here for several organisms typical of otitis media. For Pseudomonas aeruginosa, the MIC is 0.09 micrograms per milliliter. […] For Haemophilus influenza, the MIC is 0.06 micrograms per milliliter.

The subject of another experiment is Haemophilus influenza. Put plainly: Minimum Inhibitory Concentration (MIC) in water.
Text: as §1, §2

A further experiment has as its system Pseudomonas aeruginosa. Put plainly: Minimum Inhibitory Concentration (MIC) in water.
Text: as §1, §2

For experiment [1], the system named is Staphylococcus aureus LUX. Put plainly: microbe, parasite or virus in culture.
Text: as §1, §2

In experiment [2] the test system is Staphylococcus aureus GFP. Put plainly: microbe, parasite or virus in culture.
Text: as §1, §2

On to `O=C(O)c1cn(C2CC2)c2cc(N3CCNCC3)c(F)cc2c1=O` [Ciprofloxacin], for which the MIC with Streptococcus pneumonia is 0.75 µg/mL (≈ 2.26 µM); in the experiment with Haemophilus influenza, 0.06 µg/mL (≈ 0.181 µM); in the experiment on Pseudomonas aeruginosa it was 0.09 µg/mL (≈ 0.272 µM); in experiment [1], 0.28 µg/mL (≈ 0.845 µM); in experiment [2], 0.28 µg/mL (≈ 0.845 µM).
